Key:
Puccinia triticina = experiment: Wheat brown rust (PUCCRT) disease control on wheat seedlings; assay type: in vivo; set-up: key to PUCCRT 3DC, HV activity at 100 ppm (% control rating) / PUCCRT disease control, 3DC / PUCCRT 1DP disease control rating, HV activity / PUCCRT 3DC disease control rating, HV activity / PUCCRT 3DC, LV activity at 125.1 g/H (% Control rating) / PUCCRT 1DP, LV activity at 125.1 g/H (% Control rating) / PUCCRT 3DC disease control rating, LV activity at 125.1 g/H / PUCCRT 1DP disease control rating, LV activity at 125.1 g/H / PUCCRT 3DC disease control rating, HV activity at 100 ppm / PUCCRT 1DP disease control rating, HV activity at 100 ppm / HV activity at 100 ppm PUCCRT 3DC (disease control rating) / LV activity at 125.1 g/H PUCCRT 1DP (disease control rating) / LV activity at 125.1 g/H PUCCRT 3DC (disease control rating): A: > 80; B: ≤ 80; C: Not Tested; D: No Activity Observed in the Reported Assay; conditions: for PUCCRT 1DP disease control rating, HV activity at 100 ppm / PUCCRT 1DP disease control rating, LV activity at 125.1 g/H: 1 day protectant; for PUCCRT 3DC disease control rating, HV activity at 100 ppm / PUCCRT 3DC disease control rating, LV activity at 125.1 g/H: 3 day curative; for PUCCRT 1DP disease control rating, HV activity / PUCCRT 3DC disease control rating, HV activity: HV application at 100 ppm
Zymoseptoria tritici = experiment: Leaf blotch of wheat (SEPTTR) disease control on wheat seedlings; assay type: in vivo; set-up: key to SEPTTR 1DP, HV activity at 100 ppm (% control rating) / SEPTTR 3DC, HV activity at 100 ppm (% control rating) / SEPTTR disease control, 1DP / SEPTTR disease control, 3DC / SEPTTR 1DP disease control rating, HV activity / SEPTTR 3DC disease control rating, HV activity / SEPTTR 3DC, LV activity at 125.1 g/H (% Control rating) / SEPTTR 1DP, LV activity at 125.1 g/H (% Control rating) / SEPTTR 1DP disease control rating, LV activity at 125.1 g/H / SEPTTR 3DC disease control rating, LV activity at 125.1 g/H / SEPTTR 3DC disease control rating, HV activity at 100 ppm / SEPTTR 1DP disease control rating, HV activity at 100 ppm / HV activity at 100 ppm SEPTTR 3DC (disease control rating) / HV activity at 100 ppm SEPTTR 1DP (disease control rating) / LV activity at 125.1 g/H SEPTTR 1DP (disease control rating) / LV activity at 125.1 g/H SEPTTR 3DC (disease control rating): A: > 80; B: ≤ 80; C: Not Tested; D: No Activity Observed in the Reported Assay; conditions: for SEPTTR 1DP disease control rating, HV activity at 100 ppm / SEPTTR 1DP disease control rating, LV activity at 125.1 g/H: 1 day protectant; for SEPTTR 3DC disease control rating, HV activity at 100 ppm / SEPTTR 3DC disease control rating, LV activity at 125.1 g/H: 3 day curative; for SEPTTR 1DP disease control rating, HV activity / SEPTTR 3DC disease control rating, HV activity: HV application at 100 ppm
[1] = high volume application, 100 ppm
[2] = 1 Day Protectant, wheat brown rust
[3] = 3 Day Curative, wheat brown rust
[4] = 1 Day Protectant, wheat leaf blotch
[5] = 3 Day Curative, wheat leaf blotch
[6] = low volume application, 125.1 g/H
[7] = low volume application, 125.1 g/H, 1 Day Protectant
[8] = low volume application, 125.1 g/H, 3 Day Curative
[9] = HV activity at 100 ppm, 1 Day Protectant, wheat
[10] = HV activity at 100 ppm, 3 Day Curative, wheat
[11] = high volume application, 100 ppm, 1DP
[12] = high volume application, 100 ppm, 3DC

## COc1ccnc(C(=O)N[C@@H](C)C(=O)O[C@@H](C)[C@H](Oc2cccc(Cl)c2)C(C)(C)C)c1O [Cmpd 1007]
Puccinia triticina; [1]
  PUCCRT 1DP disease control rating, HV activity at 100 ppm: A (> 80)
  PUCCRT 3DC disease control rating, HV activity at 100 ppm: A (> 80)
Zymoseptoria tritici; [1]
  SEPTTR 1DP disease control rating, HV activity at 100 ppm: A (> 80)
  SEPTTR 3DC disease control rating, HV activity at 100 ppm: B (≤ 80)

## CCC(CC)C(Oc1cc(F)ccc1F)C(C)OC(=O)C(C)NC(=O)c1nccc(OC)c1O (stereo not shown) [Cmpd 422]
Puccinia triticina; [2]
  PUCCRT 1DP disease control rating, HV activity: A (> 80)
Puccinia triticina; [3]
  PUCCRT 3DC disease control rating, HV activity: B (≤ 80)
Zymoseptoria tritici; [4]
  SEPTTR 1DP disease control rating, HV activity: A (> 80)
Zymoseptoria tritici; [5]
  SEPTTR 3DC disease control rating, HV activity: B (≤ 80)

## COc1ccnc(C(=O)NC(C)C(=O)OC(C)C(Oc2cccc3ccccc23)C(C)C)c1OC(C)=O (stereo not shown) [Cmpd 859]
Puccinia triticina; [6]
  PUCCRT 1DP disease control rating, LV activity at 125.1 g/H: A (> 80)
  PUCCRT 3DC disease control rating, LV activity at 125.1 g/H: B (≤ 80)
Zymoseptoria tritici; [6]
  SEPTTR 1DP disease control rating, LV activity at 125.1 g/H: B (≤ 80)
  SEPTTR 3DC disease control rating, LV activity at 125.1 g/H: D

## COc1ccnc(C(=O)NC(C)C(=O)OC(C)C(Oc2ccccc2)c2cccs2)c1O (stereo not shown) [Cmpd 436]
Puccinia triticina; [2]
  PUCCRT 1DP disease control rating, HV activity: B (≤ 80)
Puccinia triticina; [3]
  PUCCRT 3DC disease control rating, HV activity: B (≤ 80)
Zymoseptoria tritici; [4]
  SEPTTR 1DP disease control rating, HV activity: A (> 80)
Zymoseptoria tritici; [5]
  SEPTTR 3DC disease control rating, HV activity: B (≤ 80)

## COc1ccnc(C(=O)N[C@@H](C)C(=O)O[C@@H](C)[C@H](Oc2cccc(Cl)c2)C2CC2)c1O [Cmpd 1009]
Puccinia triticina; [1]
  PUCCRT 1DP disease control rating, HV activity at 100 ppm: A (> 80)
  PUCCRT 3DC disease control rating, HV activity at 100 ppm: A (> 80)
Zymoseptoria tritici; [1]
  SEPTTR 1DP disease control rating, HV activity at 100 ppm: A (> 80)
  SEPTTR 3DC disease control rating, HV activity at 100 ppm: A (> 80)

## CCC(CCOC)C(Oc1ccccc1)C(C)OC(=O)C(C)NC(=O)c1nccc(OC)c1OC(C)=O (stereo not shown) [Cmpd 481]
Puccinia triticina; [7]
  PUCCRT 1DP, LV activity at 125.1 g/H (% Control rating): A (> 80)
Puccinia triticina; [8]
  PUCCRT 3DC, LV activity at 125.1 g/H (% Control rating): A (> 80)
Zymoseptoria tritici; [7]
  SEPTTR 1DP, LV activity at 125.1 g/H (% Control rating): B (≤ 80)
Zymoseptoria tritici; [8]
  SEPTTR 3DC, LV activity at 125.1 g/H (% Control rating): A (> 80)

## CCCOC(CC)C(Oc1ccccc1)C(C)OC(=O)C(CC(C)C)NC(=O)c1nccc(OC)c1OC(C)=O (stereo not shown) [Cmpd 452]
Puccinia triticina; [2]
  PUCCRT 1DP disease control rating, HV activity: A (> 80)
Puccinia triticina; [3]
  PUCCRT 3DC disease control rating, HV activity: A (> 80)
Zymoseptoria tritici; [4]
  SEPTTR 1DP disease control rating, HV activity: B (≤ 80)
Zymoseptoria tritici; [5]
  SEPTTR 3DC disease control rating, HV activity: B (≤ 80)

## CC[C@H](Cc1ccccc1)[C@@H](OCC(C)C)[C@H](C)OC(=O)[C@H](C)NC(=O)c1nccc(OC)c1O [Cmpd 293, (S)-(2S,3R,4R)-4-benzyl-3-isobutoxyhexan-2-yl-2-(3-hydroxy-4-methoxypicolinamido)propanoate]
Puccinia triticina; [9]
  PUCCRT disease control, 1DP: A (> 80)
Puccinia triticina; [10]
  PUCCRT disease control, 3DC: B (≤ 80)
Puccinia triticina; [2]
  PUCCRT 1DP disease control rating, HV activity: A (> 80)
Puccinia triticina; [3]
  PUCCRT 3DC disease control rating, HV activity: B (≤ 80)
Puccinia triticina; [11]
  PUCCRT 1DP, HV activity at 100 ppm (% control rating): A (> 80)
Puccinia triticina; [12]
  PUCCRT 3DC, HV activity at 100 ppm (% control rating): B (≤ 80)
Zymoseptoria tritici; [9]
  SEPTTR disease control, 1DP: A (> 80)
Zymoseptoria tritici; [10]
  SEPTTR disease control, 3DC: B (≤ 80)
Zymoseptoria tritici; [4]
  SEPTTR 1DP disease control rating, HV activity: A (> 80)
Zymoseptoria tritici; [5]
  SEPTTR 3DC disease control rating, HV activity: B (≤ 80)
Zymoseptoria tritici; [11]
  SEPTTR 1DP, HV activity at 100 ppm (% control rating): A (> 80)
Zymoseptoria tritici; [12]
  SEPTTR 3DC, HV activity at 100 ppm (% control rating): B (≤ 80)

## COc1ccnc(C(=O)N[C@@H](C)C(=O)O[C@@H](C)[C@H](Oc2cccc(Cl)c2)C2CC2)c1OC(C)=O [Cmpd 1053]
Puccinia triticina; low volume application, 125.1 g/H, 1 Day Protectant, wheat brown rust
  LV activity at 125.1 g/H PUCCRT 1DP (disease control rating): A (> 80)
Puccinia triticina; low volume application, 125.1 g/H, 3 Day Curative, wheat brown rust
  LV activity at 125.1 g/H PUCCRT 3DC (disease control rating): A (> 80)
Zymoseptoria tritici; low volume application, 125.1 g/H, 1 Day Protectant, wheat leaf blotch
  LV activity at 125.1 g/H SEPTTR 1DP (disease control rating): B (≤ 80)
Zymoseptoria tritici; low volume application, 125.1 g/H, 3 Day Curative, wheat leaf blotch
  LV activity at 125.1 g/H SEPTTR 3DC (disease control rating): A (> 80)

## COc1ccnc(C(=O)N[C@@H](C)C(=O)O[C@@H](C)[C@H](OCC2CC2)C2CCCCC2)c1OCOC(C)=O [Cmpd 881]
Puccinia triticina; [6]
  PUCCRT 1DP disease control rating, LV activity at 125.1 g/H: A (> 80)
  PUCCRT 3DC disease control rating, LV activity at 125.1 g/H: A (> 80)
Zymoseptoria tritici; [6]
  SEPTTR 1DP disease control rating, LV activity at 125.1 g/H: B (≤ 80)
  SEPTTR 3DC disease control rating, LV activity at 125.1 g/H: B (≤ 80)

## COc1ccnc(C(=O)N[C@@H](C)C(=O)O[C@@H](C)[C@@H](OC)c2ccccc2)c1OC(C)=O [Cmpd 885]
Puccinia triticina; [6]
  PUCCRT 1DP disease control rating, LV activity at 125.1 g/H: D
  PUCCRT 3DC disease control rating, LV activity at 125.1 g/H: A (> 80)
Zymoseptoria tritici; [6]
  SEPTTR 1DP disease control rating, LV activity at 125.1 g/H: D
  SEPTTR 3DC disease control rating, LV activity at 125.1 g/H: B (≤ 80)
